According to ChEMBL document CHEMBL1145549, “Constrained NBMPR analogue synthesis, pharmacophore mapping and 3D-QSAR modeling of equilibrative nucleoside transporter 1 (ENT1) inhibitory activity” (Bioorg Med Chem, 2008):

Biological target: T1, Equilibrative nucleoside transporter 1 (Homo sapiens, UniProt Q99808)
T1 sequence (Q99808 whole entry): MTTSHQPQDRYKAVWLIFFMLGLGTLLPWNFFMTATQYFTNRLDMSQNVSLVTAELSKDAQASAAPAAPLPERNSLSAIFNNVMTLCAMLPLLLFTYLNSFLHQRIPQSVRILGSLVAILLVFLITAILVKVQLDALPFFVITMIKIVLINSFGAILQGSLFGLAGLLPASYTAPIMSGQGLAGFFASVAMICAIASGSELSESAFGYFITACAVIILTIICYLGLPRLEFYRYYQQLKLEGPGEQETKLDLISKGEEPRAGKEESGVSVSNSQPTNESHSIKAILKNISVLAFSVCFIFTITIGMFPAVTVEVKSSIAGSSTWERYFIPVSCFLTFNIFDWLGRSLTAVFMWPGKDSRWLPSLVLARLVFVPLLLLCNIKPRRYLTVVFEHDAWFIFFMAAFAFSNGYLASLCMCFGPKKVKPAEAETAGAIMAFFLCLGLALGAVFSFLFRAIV
Assay: Displacement of 5-(SAENTA)-X8-fluorescein from human ENT1 transporter in human K562 cells
Assay type: cell-based

Row | Ki [µM] | SMILES
1 | 0.0189 | O=[N+]([O-])c1ccc2c(c1)CN(c1ncnc3c1nc1n3[C@@H]3O[C@H](CO1)[C@@H](O)[C@H]3O)CC2
2 | > 1 | O=[N+]([O-])c1cccc2c1CCN(c1ncnc3c1nc1n3[C@@H]3O[C@H](CO1)[C@@H](O)[C@H]3O)C2
3 | > 1 | O=[N+]([O-])c1cccc2c1CN(c1ncnc3c1nc1n3[C@@H]3O[C@H](CO1)[C@@H](O)[C@H]3O)CC2
4 | > 1 | O=[N+]([O-])c1ccc2c(c1)CCN(c1ncnc3c1nc1n3[C@@H]3O[C@H](CO1)[C@@H](O)[C@H]3O)C2

Biological target: T1, Equilibrative nucleoside transporter 1
Assay: Binding affinity to ENT1 transporter

Row | IC50 [µM] | SMILES
5 | 13.5 | Nc1nc(SCc2ccccc2Cl)c2ncn([C@@H]3O[C@H](CO)[C@@H](O)[C@H]3O)c2n1
6 | 41.7 | CCCC(C)n1cnc2c(SCc3ccccn3)nc(N)nc21 (stereo not drawn)
7 | 2.88 | Nc1nc(SCc2cccc(Br)c2)c2ncn([C@@H]3O[C@H](CO)[C@@H](O)[C@H]3O)c2n1
8 | 162 | CCSc1nc(N)nc2c1ncn2[C@@H]1O[C@H](CO)[C@@H](O)[C@H]1O
9 | 204 | CSc1nc(N)nc2c1ncn2[C@@H]1O[C@H](CO)[C@@H](O)[C@H]1O
10 | 34.7 | Nc1nc(SCc2ccccn2)c2ncn([C@@H]3O[C@H](CO)[C@@H](O)[C@H]3O)c2n1
11 | 10.7 | OC[C@H]1O[C@@H](n2cnc3c(NCc4ccccc4)ncnc32)[C@H](O)[C@@H]1O [N6-BENZYLADENOSINE]
12 | 0.158 | OC[C@H]1O[C@@H](n2cnc3c(CSc4ccc(F)cc4)ncnc32)[C@H](O)[C@@H]1O
13 | 0.813 | Nc1nc(SCc2ccc(Br)cc2)c2ncn([C@@H]3O[C@H](CO)[C@@H](O)[C@H]3O)c2n1
14 | 52.5 | CCCCn1cnc2c(SCc3ccccn3)nc(N)nc21
15 | 4.79 | CC(C)c1ccc(CSc2ncnc3c2ncn3[C@@H]2O[C@H](CO)[C@@H](O)[C@H]2O)cc1
16 | 1.15 | Nc1nc(SCc2ccc(F)cc2)c2ncn([C@@H]3O[C@H](CO)[C@@H](O)[C@H]3O)c2n1
17 | 1.51 | OC[C@H]1O[C@@H](n2cnc3c(CSc4c(F)cccc4Cl)ncnc32)[C@H](O)[C@@H]1O
18 | 0.0214 | Nc1nc(SCc2ccc([N+](=O)[O-])cc2)c2ncn([C@@H]3O[C@H](CO)[C@@H](O)[C@H]3O)c2n1
19 | 1.35 | OC[C@H]1O[C@@H](n2cnc3c(SCCCc4ccccc4)ncnc32)[C@H](O)[C@@H]1O
20 | 115 | Cc1ccc2ccccc2c1CSc1ncnc2c1ncn2[C@@H]1O[C@H](CO)[C@@H](O)[C@H]1O

Continued, compound first:

Row | SMILES | IC50 [µM]
21 | O=[N+]([O-])c1ccc2c(c1)CN(c1ncnc3c1nc1n3[C@@H]3O[C@H](CO1)[C@@H](O)[C@H]3O)CC2 | 0.331
22 | O=[N+]([O-])c1cccc2c1CCN(c1ncnc3c1nc1n3[C@@H]3O[C@H](CO1)[C@@H](O)[C@H]3O)C2 | 7410
23 | COc1ncnc2c1ccn2[C@@H]1O[C@H](CO)[C@@H](O)[C@H]1O | 339
24 | O=[N+]([O-])c1cccc2c1CN(c1ncnc3c1nc1n3[C@@H]3O[C@H](CO1)[C@@H](O)[C@H]3O)CC2 | 1740
25 | O=[N+]([O-])c1cccc2c1CCN(c1ncnc3c1ncn3[C@@H]1O[C@H](CO)[C@@H](O)[C@H]1O)C2 | 3.02
26 | CN(Cc1ccc([N+](=O)[O-])cc1)c1ncnc2c1ncn2[C@@H]1O[C@H](CO)[C@@H](O)[C@H]1O | 0.309
27 | O=[N+]([O-])c1cccc2c1CN(c1ncnc3c1ncn3[C@@H]1O[C@H](CO)[C@@H](O)[C@H]1O)CC2 | 3.63
28 | O=[N+]([O-])c1ccc2c(c1)CCN(c1ncnc3c1ncn3[C@@H]1O[C@H](CO)[C@@H](O)[C@H]1O)C2 | 0.182
29 | CSc1ncnc2c1c(Br)cn2[C@@H]1O[C@H](CO)[C@@H](O)[C@H]1O | 115
30 | CC(=O)Nc1ccc(CNc2ncnc3c2ncn3[C@@H]2O[C@H](CO)[C@@H](O)[C@H]2O)cc1 | 0.182
31 | c1ccc(CCNc2ncnc3[nH]ncc23)cc1 | 100
32 | O=[N+]([O-])c1cccc(SCc2ncnc3c2ncn3[C@@H]2O[C@H](CO)[C@@H](O)[C@H]2O)c1 | 0.00479
33 | O=[N+]([O-])c1ccc2c(c1)CCN(c1ncnc3c1nc1n3[C@@H]3O[C@H](CO1)[C@@H](O)[C@H]3O)C2 | 245
